Among the data in patent US7897765B2, “Therapeutic compounds and uses thereof” (Elixir Pharmaceuticals, Inc., priority 2003, dated 2011) are Activity values, retold here.

Chain of GHS-R (Q92847 whole entry, species assumed): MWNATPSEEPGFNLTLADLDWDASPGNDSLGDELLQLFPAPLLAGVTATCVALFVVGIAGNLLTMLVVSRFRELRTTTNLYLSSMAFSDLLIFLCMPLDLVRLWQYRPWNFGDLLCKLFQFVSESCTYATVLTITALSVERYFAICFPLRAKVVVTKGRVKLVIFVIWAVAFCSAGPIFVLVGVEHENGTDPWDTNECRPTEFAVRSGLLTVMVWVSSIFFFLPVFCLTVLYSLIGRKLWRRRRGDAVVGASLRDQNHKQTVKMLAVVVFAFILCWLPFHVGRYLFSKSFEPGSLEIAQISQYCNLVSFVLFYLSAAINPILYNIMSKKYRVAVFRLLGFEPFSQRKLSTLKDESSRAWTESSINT

The assay has as its target GHS-R (Homo sapiens, UniProt Q92847). In words: cell based assay of GHS-R antagonist/agonist activity. The settings on record: GHS-R antagonist Ki and/or agonist EC50 class. The method, then:
Cell-Based Activity Assays. For example, the ability of the compound to modulate accumulation of a second messenger signaling component downstream of GHS-R can be evaluated. For example, inositol phosphates (IP), as a result of Gq signaling in a mammalian cell, e.g., a Cos-7 cells. Other tissue culture cells, Xenopus oocytes, and primary cells can also be used.
Phosphatidylinositol turnover assay. One day after transfection COS-7 cells are incubated for 24 hours with 5 μCi of [^3H]-myo-inositol in 1 ml medium supplemented with 10% fetal calf serum, 2 mM glutamine and 0.01 mg/ml gentamicin per well. Cells are then washed twice in buffer, 20 mM HEPES, pH 7.4, supplemented with 140 mM NaCl, 5 mM KCl, 1 mM MgSO4, 1 mM CaCl2, mM glucose, 0.05% (w/v) bovine serum; and incubated in 0.5 ml buffer supplemented with 10 mM LiCl at 37° C. for 30 min. For some assays, it is also useful to incubate the cells with adenosine deaminase ADA (200 U/mg, Boehringer Mannheim, Germany) for 30 min in a concentration of 1 U/ml.
After incubation with the compound of interest for 45 min at 37° C., cells are extracted with 10% ice-cold perchloric acid and placed on ice for 30 min. The resulting supernatants are neutralized with KOH in HEPES buffer, and [^3H]-inositol phosphate is purified on Bio-Rad AG 1-X8 anion exchange resin as described. Assays can be run in duplicate, triplicate, etc.
Other second messenger assays. Another second messenger that can be evaluated is Ca^2+. Ca^2+ mobilization can be evaluated using a calcium sensitive detector, such as aequorin protein or a dye, e.g., FURA-2. In an exemplary assay, calcium mobilization is evaluated in a recombinant cell that expresses GHS-R and aequorin.
Gene expression assay. HEK293 cells (30 000 cells/well) seeded in 96-well plates are transiently transfected with a mixture of pFA2-CREB and pFR-Luc reporter plasmid (PathDetect™ CREB trans-Reporting System, Stratagene) and nucleic acid encoding GHS. One day after transfection, cells are treated with the compound of interest in an assay volume of 100 μl medium for 5 hrs. After treatment, cells are cultured in low serum (2.5%). After the incubation period, the assay is ended by washing the cells twice with PBS and adding 100 μl luciferase assay reagent (LucLite™, Packard Bioscience). Luminescence is measured (e.g., as relative light units (RLU)) using in a luminometer such as the TopCounter™ (Packard Bioscience) for 5 sec.
IC50 and EC50 values can be determined by nonlinear regression, e.g., using the Prism 3.0 software (GraphPad Software, San Diego).
As for `CCN1CCC=C(C(=O)N[C@H](COCc2ccccc2)C(=O)N2CCC3(CC2)CN(S(C)(=O)=O)c2ccccc23)C1.Cl` [Compound 2], the Activity result was “D (D refers to a compound having antagonist activity with Ki, <100 nM and agonist activity with EC50<100 nM in a cell-based assay)”.
As for `CN1CCC(C(=O)N[C@H](COCc2ccccc2)C(=O)N2CCC3(C=Cc4ccccc43)CC2)CC1` [Compound 3], the entry is “A (A refers to a compound having antagonist activity with Ki<100 nM in a cell based assay)”.
Under `CS(=O)(=O)N1CC2(CCN(C(=O)[C@@H](COCc3ccccc3)NC(=O)C3CCCNC3)CC2)c2ccccc21` (stereo partly drawn) [Compound 4] stands “D (D refers to a compound having antagonist activity with Ki, <100 nM and agonist activity with EC50<100 nM in a cell-based assay)”.
As for `CN(C)C[C@H]1CCC[C@@H](CNC(=O)[C@@H](Cc2c[nH]c3ccccc23)NC(=O)N2CCC3(C=Cc4ccccc43)CC2)C1` [Compound 5], the entry is “A (A refers to a compound having antagonist activity with Ki<100 nM in a cell based assay)”; as for `CN(C)Cc1cccc(C(=O)N[C@H](COCc2ccccc2)C(=O)N2CCC3(CC2)CN(S(C)(=O)=O)c2ccccc23)c1` [Compound 6], “A (A refers to a compound having antagonist activity with Ki<100 nM in a cell based assay)”.
With `CN1CCC=C(C(=O)N[C@H](COCc2ccccc2)C(=O)N2CCC3(CC2)CN(S(C)(=O)=O)c2ccccc23)C1` [Compound 7], the Activity entry was “D (D refers to a compound having antagonist activity with Ki, <100 nM and agonist activity with EC50<100 nM in a cell-based assay)”.
As for `CCN(CC)CCS(=O)(=O)N[C@H](COCc1ccccc1)C(=O)N1CCC2(CC1)CN(S(C)(=O)=O)c1ccccc12` [Compound 8], the entry is “D (D refers to a compound having antagonist activity with Ki, <100 nM and agonist activity with EC50<100 nM in a cell-based assay)”.
Under `CC(C)(C)OC(=O)N[C@H](COCc1ccccc1)C(=O)N1CCC2(CC1)CN(S(C)(=O)=O)c1ccccc12` [Compound 9] stands “A (A refers to a compound having antagonist activity with Ki<100 nM in a cell based assay)”; under `CN(C)C[C@H]1CCC[C@@H](C(=O)N[C@H](COCc2ccccc2)C(=O)N2CCC3(CC2)CN(S(C)(=O)=O)c2ccccc23)C1` [Compound 10], “D (D refers to a compound having antagonist activity with Ki, <100 nM and agonist activity with EC50<100 nM in a cell-based assay)”; under `CN1CC=C[C@H]1C(=O)N[C@H](COCc1ccccc1)C(=O)N1CCC2(CC1)CN(S(C)(=O)=O)c1ccccc12` [Compound 11], “A (A refers to a compound having antagonist activity with Ki<100 nM in a cell based assay)”.
As for `CC(C)N1CCC=C(C(=O)N[C@H](COCc2ccccc2)C(=O)N2CCC3(CC2)CN(S(C)(=O)=O)c2ccccc23)C1` [Compound 12], the entry is “A (A refers to a compound having antagonist activity with Ki<100 nM in a cell based assay)”; as for `CN1CCCC(C(=O)N[C@H](COCc2ccccc2)C(=O)N2CCC3(CC2)CN(S(C)(=O)=O)c2ccccc23)C1` (stereo partly drawn) [Compound 13], “A (A refers to a compound having antagonist activity with Ki<100 nM in a cell based assay)”; as for `C[C@H](C(=O)N[C@H](COCc1ccccc1)C(=O)N1CCC2(CC1)CN(S(C)(=O)=O)c1ccccc12)N(C)C` [Compound 14], “A (A refers to a compound having antagonist activity with Ki<100 nM in a cell based assay)”.
Turning to `CCN(C)CCC(=O)N[C@H](COCc1ccccc1)C(=O)N1CCC2(CC1)CN(S(C)(=O)=O)c1ccccc12` [Compound 15], the Activity result was “C (C refers to a compound having antagonist activity of Ki>100 nM and <1500 nM in a cell based assay)”.
As for `CS(=O)(=O)N1CC2(CCN(C(=O)[C@@H](COCc3ccccc3)NC(=O)C3=CCNCC3)CC2)c2ccccc21` [Compound 16], the entry is “C (C refers to a compound having antagonist activity of Ki>100 nM and <1500 nM in a cell based assay)”.
